Assay results as given in patent US20120258980A1, “Antibacterial Agent for Drug-Resistant Bacteria, Method for Screening for Same, and Use of Same” (priority 2009, published 2012).
Read-outs that look alike come from different tables or passages of the source.

Assays:
[1] = tested on: MRSA, CA-MRSA and MSSA of Staphylococcus aureus; assay: MIC measurement, Test Example 4 (MRSA, CA-MRSA and MSSA strains); type: cell-based
Protocol: (§1) Each of the bacterial strains listed in Table 1-1 was shake-cultured at 37° C. overnight in 4 mL of a medium (Tryptical Soy Broth: TSB, product of Becton Dickinson and Company). FDA209P was used as a control.
(§2) After completion of culturing, the resultant culture was suspended in a cation-adjusted Mueller Hinton Broth (CAMHB, product of Becton Dickinson and Company). Then, the obtained bacterial culture was adjusted in absorbance with the CAMHB so that the absorbance at 578 nm of the bacterial culture was adjusted to 0.3 measured by an absorption spectrometer. In addition, the resultant bacterial culture was 500-fold diluted with the CAMHB.
(§3) Each of the 500-fold diluted, pre-cultured bacterial cultures was added at 50 μL/well to the CAMHB containing the quinolones and the nybomycins at various concentrations (50 μL/well), followed by statically culturing at 37° C. overnight.
(§4) After completion of culturing, the growth of the bacteria was visually determined based on turbidity to measure MIC in each bacterial strain.
Glycopeptides, imipenem, quinolones and nybomycins were studied for antibacterial activity against the bacterial strains listed in Table 2-1; i.e., MRSA, CA-MRSA and MSSA of Staphylococcus aureus.

[2] = tested on: VISA clinical isolates of MRSA (VI-MRSA) and of MSSA (VI-MSSA); assay: microbe, parasite or virus in culture; type: cell-based, Staphylococcus aureus
Protocol: as §1, §2, §3, §4
Here, the glycopeptides used were VCM and TEIC. The β-lactam used was OXA.

[3] = tested on: VRSA clinical isolates; conditions: based on NARSA, cited from earlier work

With teicoplanin the MIC ([1]; ATCC 29213, MSSA) was 2 µg/mL, the MIC ([1]; COL, MRSA) was 2 µg/mL and the MIC ([1]; FDA209P, MSSA) was 0.06 µg/mL. It also gave an MIC ([1]; ISA12-1, MRSA) of 1 µg/mL, an MIC ([1]; ISA12-2, MRSA) of 1 µg/mL and an MIC ([1]; ISA35-1, MRSA) of 2 µg/mL. The MIC ([1]; ISA37-1, MSSA) was 1 µg/mL, the MIC ([1]; ISA49-1, MSSA) was 0.5 µg/mL and the MIC ([1]; ISA51-1, MSSA) was 0.5 µg/mL. For the same substance, the MIC ([1]; ISA56-3, MRSA) was 4 µg/mL, the MIC ([1]; ISA58-1, MRSA) was 2 µg/mL and the MIC ([1]; ISA62-1, MRSA) was 1 µg/mL. It also gave an MIC ([1]; ISA73-1, MSSA) of 2 µg/mL, an MIC ([1]; KBSA32, MRSA) of 1 µg/mL and an MIC ([1]; KBSA34, MRSA) of 1 µg/mL. It also gave an MIC ([1]; KBSA72, MRSA) of 1 µg/mL, an MIC ([1]; KBSA96, MRSA) of 1 µg/mL and an MIC ([1]; KBSA171, MRSA) of 0.25 µg/mL. For the same substance, the MIC ([1]; KSA24, MRSA) was 1 µg/mL, the MIC ([1]; KSA31, MRSA) was 1 µg/mL and the MIC ([1]; KSA36, MRSA) was 1 µg/mL. For the same substance, the MIC ([1]; MW2, CA-MRSA) was 0.5 µg/mL, the MIC ([1]; N315, MRSA) was 0.25 µg/mL and the MIC ([1]; NCTC 8325, MSSA) was 0.5 µg/mL. It also gave an MIC ([1]; USA300 FPR3757, CA-MRSA) of 1 µg/mL, an MIC ([2]; 99/3700-W, VI-MRSA, The United Kingdom) of 2 µg/mL and an MIC ([2]; 99/3759-V, VI-MRSA, The United Kingdom) of 8 µg/mL. It also gave an MIC ([2]; 28160, VI-MRSA, South African Republic) of 4 µg/mL, an MIC ([2]; 98141, VI-MRSA, France) of 4 µg/mL and an MIC ([2]; A7 (JCSC4842), VI-MRSA, Taiwan) of 8 µg/mL. For the same substance, the MIC ([2]; AMC11094, VI-MRSA, Korea) was 8 µg/mL, the MIC ([2]; B7 (JCSC4852), VI-MRSA, Taiwan) was 16 µg/mL and the MIC ([2]; BR1, VI-MRSA, Brazil) was 2 µg/mL. The MIC ([2]; BR2, VI-MRSA, Brazil) was 1 µg/mL, the MIC ([2]; BR3, VI-MRSA, Brazil) was 4 µg/mL and the MIC ([2]; BR4, VI-MRSA, Brazil) was 8 µg/mL. For the same substance, the MIC ([2]; BR5, VI-MRSA, Brazil) was 4 µg/mL, the MIC ([2]; HIP06297, VI-MRSA, America) was 8 µg/mL and the MIC ([2]; HIP06854, VI-MRSA, America) was 2 µg/mL. It also gave an MIC ([2]; HIP07920, VI-MRSA, America) of 2 µg/mL, an MIC ([2]; HIP07930, VI-MRSA, America) of 4 µg/mL and an MIC ([2]; HIP08926, VI-MRSA, America) of 4 µg/mL. The MIC ([2]; HIP09143, VI-MRSA, America) was 4 µg/mL, the MIC ([2]; HIP09313, VI-MRSA, America) was 4 µg/mL and the MIC ([2]; HIP09433, VI-MRSA, America) was 8 µg/mL. It also gave an MIC ([2]; HIP09662, VI-MRSA, America) of 4 µg/mL, an MIC ([2]; HIP09735, VI-MRSA, America) of 4 µg/mL and an MIC ([2]; HIP09737, VI-MSSA, America) of 4 µg/mL. It also gave an MIC ([2]; HIP09740, VI-MRSA, America) of 4 µg/mL, an MIC ([2]; HIP10267, VI-MRSA, America) of 4 µg/mL and an MIC ([2]; HIP10540, VI-MRSA, America) of 16 µg/mL. For the same substance, the MIC ([2]; HIP12864, VI-MRSA, America) was 8 µg/mL, the MIC ([2]; HIP13036, VI-MRSA, America) was 4 µg/mL and the MIC ([2]; HIP13057, VI-MRSA, America) was 8 µg/mL. It also gave an MIC ([2]; IL (HIP7737), VI-MRSA, America) of 4 µg/mL, an MIC ([2]; JCSC7193, VI-MRSA, Thailand) of 8 µg/mL and an MIC ([2]; JCSC7195, VI-MRSA, Thailand) of 8 µg/mL. For the same substance, the MIC ([2]; JCSC7203, VI-MRSA, Thailand) was 4 µg/mL, the MIC ([2]; LIM2, VI-MRSA, France) was 8 µg/mL and the MIC ([2]; LY-1999-01, VI-MSSA, Oman) was 8 µg/mL. The MIC ([2]; LY-1999-03, VI-MRSA, Oman) was 8 µg/mL, the MIC ([2]; MI (HIP5827), VI-MRSA, America) was 8 µg/mL and the MIC ([2]; Mu3, VI-MRSA, Japan) was 8 µg/mL. The MIC ([2]; Mu50, VI-MRSA, Japan) was 16 µg/mL, the MIC ([2]; NJ (HIP5836), VI-MRSA, America) was 8 µg/mL and the MIC ([2]; NRS76, VI-MSSA, America) was 4 µg/mL. The MIC ([2]; NRS79, VI-MRSA, America) was 8 µg/mL, the MIC ([2]; NRS118, VI-MRSA, America) was 8 µg/mL and the MIC ([2]; NRS126, VI-MRSA, America) was 2 µg/mL. It also gave an MIC ([2]; P1V44, VI-MSSA, Belgium) of 16 µg/mL, an MIC ([2]; PC, VI-MRSA, America) of 4 µg/mL and an MIC ([2]; SA MER-S6, VI-MSSA, France) of 8 µg/mL. For the same substance, the MIC ([2]; SA MER-S12, VI-MSSA, France) was 16 µg/mL, the MIC ([2]; SA MER-S20, VI-MSSA, France) was 32 µg/mL and the MIC ([3]; VRS1, VRSA, Michigan) was 64 µg/mL. The MIC ([3]; VRS2, VRSA, Pennsylvania) was 8 µg/mL, the MIC ([3]; VRS3, VRSA, New York) was 16 µg/mL and the MIC ([3]; VRS4, VRSA, New York) was 32 µg/mL. For the same substance, the MIC ([3]; VRS5, VRSA, Michigan) was 128 µg/mL, the MIC ([3]; VRS6, VRSA, Michigan) was over 256 µg/mL and the MIC ([3]; VRS7, VRSA, Michigan) was over 256 µg/mL.
